# Experimental data taken from ChEMBL document CHEMBL1201862, “PubChem BioAssay data set” (2004).
# Several values for one entry are separate records, joined by “and”; a condition that tells them apart may be missing. Identical values can stand only once. Activity calls are given as the source filed them.
# How the values were obtained:
# Nonstructural protein 1 = Nonstructural protein 1 (Influenza A virus, UniProt Q194T2); format: functional, Influenza A virus (A/California/07/2009(H1N1))
# [1] = molecular target: Serine/threonine-protein phosphatase (Homo sapiens, UniProt Q9BPW0); experiment: Counterscreen for inhibitors of PP1: fluorescence-based biochemical high throughput dose response assay to identify inhibitors of Protein Phosphatase 5 (PP5). [Related pubchem assays: 2034 (Summary (PP5 inhibitors)), 1987 (PP5 inhibitors in singlate), 2235 (PP1 inhibitors in singlate)]
# [2] = inhibitors of intracellular T. cruzi replication, confirmation, NIH3T3 host cells, beta-gal luminescence (AID 2044); format: functional, cell-based;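 further: intracellular parasites grown in NIH/3T3 mouse fibroblasts as host cells; luminescent beta-galactosidase reporter signal from transgenic T. cruzi replicating inside host cells; inhibitors lower the luminescence signal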
# [3] = cytotoxicity toward NIH3T3 fibroblasts, dose response, counter-screen, cell-based, ATP luminescence, mouse fibroblasts (AID 2010); format: functional;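 further: cells exposed to compound for about 90 hours before reading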
# INS1 = experiment: beta cell apoptosis inhibitors, cytokine rescue, dose response, luminescence, retest (AID 449756); format: functional, cell-based; details: Rattus norvegicus;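 further: cell death triggered by IL-1 beta plus TNF-alpha plus IFN-gamma mixture; protective hits raise ATP signal compared with cytokine alone wells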
# [4] = molecular target: Photoreceptor-specific nuclear receptor (Homo sapiens, UniProt Q9Y5X4); format: functional, cell-based;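 further: CHO-S cells with Gal4-NCOR and VP16-NR2E3 two-hybrid luciferase reporter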
# [5] = molecular target: Serine/threonine-protein phosphatase PP1-alpha catalytic subunit (Homo sapiens, UniProt P62136); experiment: PP1 phosphatase inhibitors, dose response, biochemical, fluorescence (AID 2403);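 further: phosphatase turnover of OMFP into fluorescent 3-O-methylfluorescein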
# Chain of Serine/threonine-protein phosphatase PP1-alpha catalytic subunit (P62136 whole entry): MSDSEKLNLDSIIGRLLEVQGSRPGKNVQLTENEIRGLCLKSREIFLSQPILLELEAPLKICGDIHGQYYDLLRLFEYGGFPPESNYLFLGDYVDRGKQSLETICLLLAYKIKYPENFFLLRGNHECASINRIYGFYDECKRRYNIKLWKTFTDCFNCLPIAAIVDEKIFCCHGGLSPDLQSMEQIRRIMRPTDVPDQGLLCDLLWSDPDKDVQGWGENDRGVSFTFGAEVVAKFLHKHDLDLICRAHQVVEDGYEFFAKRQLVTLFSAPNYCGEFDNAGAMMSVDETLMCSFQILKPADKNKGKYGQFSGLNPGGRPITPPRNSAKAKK
# Vero [6] = experiment: cells; format: functional; details: Chlorocebus sabaeus
# P388 = experiment: cells; format: functional; details: Mus musculus
# [7] = molecular target: C-C chemokine receptor type 6 (Homo sapiens, UniProt P51684); experiment: CCR6 receptor antagonists, dose response, cell-based, luminescent beta-arrestin readout (AID 504728); format: functional
# P388/ADR = experiment: cells; format: functional; details: Mus musculus
# SN12K1 = experiment: cells; format: functional; details: Homo sapiens
# Vero [8] = experiment: cells; format: functional, cell-based; details: Chlorocebus sabaeus
# Beta-galactosidase = Beta-galactosidase (Escherichia coli, UniProt Q8VNN2); experiment: beta-galactosidase enzyme inhibitors and activators, dose response, artefact control for CCR6 antagonist project, biochemical, E. coli enzyme, set 3 (AID 504712); format: functional
# Chain of Beta-galactosidase (Q8VNN2 whole entry): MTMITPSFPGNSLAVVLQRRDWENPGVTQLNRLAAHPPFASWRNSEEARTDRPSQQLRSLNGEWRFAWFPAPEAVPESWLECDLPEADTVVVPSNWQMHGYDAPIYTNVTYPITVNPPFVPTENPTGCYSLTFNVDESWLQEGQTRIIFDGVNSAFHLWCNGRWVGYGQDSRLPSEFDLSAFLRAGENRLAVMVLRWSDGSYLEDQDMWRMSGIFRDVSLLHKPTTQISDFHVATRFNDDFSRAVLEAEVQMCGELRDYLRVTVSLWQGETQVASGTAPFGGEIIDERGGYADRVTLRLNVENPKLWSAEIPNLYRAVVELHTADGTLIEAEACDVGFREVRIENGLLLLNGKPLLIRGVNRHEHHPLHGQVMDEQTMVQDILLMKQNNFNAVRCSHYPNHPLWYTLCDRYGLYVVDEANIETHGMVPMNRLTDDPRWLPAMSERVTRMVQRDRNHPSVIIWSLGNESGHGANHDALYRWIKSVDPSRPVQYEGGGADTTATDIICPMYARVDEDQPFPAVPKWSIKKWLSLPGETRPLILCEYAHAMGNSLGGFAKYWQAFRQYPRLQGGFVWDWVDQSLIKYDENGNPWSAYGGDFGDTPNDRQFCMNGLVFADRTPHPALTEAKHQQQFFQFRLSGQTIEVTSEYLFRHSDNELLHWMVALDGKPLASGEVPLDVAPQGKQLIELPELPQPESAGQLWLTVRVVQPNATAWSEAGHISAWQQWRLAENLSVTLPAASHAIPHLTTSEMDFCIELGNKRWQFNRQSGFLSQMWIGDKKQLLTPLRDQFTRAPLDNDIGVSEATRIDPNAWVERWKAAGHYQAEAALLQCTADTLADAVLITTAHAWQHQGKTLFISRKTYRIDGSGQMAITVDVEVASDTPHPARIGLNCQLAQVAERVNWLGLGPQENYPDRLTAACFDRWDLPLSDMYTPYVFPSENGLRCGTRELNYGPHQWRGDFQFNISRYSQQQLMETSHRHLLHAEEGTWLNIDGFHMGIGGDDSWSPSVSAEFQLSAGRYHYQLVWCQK
# Cytochrome P450 2C9 = Cytochrome P450 2C9 (Homo sapiens, UniProt P11712); details: Potency
# HeLa [9] = experiment: HeLa cell cytotoxicity, dose response, cytotoxicity control, 24 h, cherry-picked samples (AID 504726); format: functional, cell-based; details: Homo sapiens;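 further: potency for cytotoxicity as loss of luminescence signal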
# [10] = molecular target: T1, Alkaline phosphatase, tissue-nonspecific isozyme (Homo sapiens, UniProt P05186)
# T1 sequence (P05186 whole entry): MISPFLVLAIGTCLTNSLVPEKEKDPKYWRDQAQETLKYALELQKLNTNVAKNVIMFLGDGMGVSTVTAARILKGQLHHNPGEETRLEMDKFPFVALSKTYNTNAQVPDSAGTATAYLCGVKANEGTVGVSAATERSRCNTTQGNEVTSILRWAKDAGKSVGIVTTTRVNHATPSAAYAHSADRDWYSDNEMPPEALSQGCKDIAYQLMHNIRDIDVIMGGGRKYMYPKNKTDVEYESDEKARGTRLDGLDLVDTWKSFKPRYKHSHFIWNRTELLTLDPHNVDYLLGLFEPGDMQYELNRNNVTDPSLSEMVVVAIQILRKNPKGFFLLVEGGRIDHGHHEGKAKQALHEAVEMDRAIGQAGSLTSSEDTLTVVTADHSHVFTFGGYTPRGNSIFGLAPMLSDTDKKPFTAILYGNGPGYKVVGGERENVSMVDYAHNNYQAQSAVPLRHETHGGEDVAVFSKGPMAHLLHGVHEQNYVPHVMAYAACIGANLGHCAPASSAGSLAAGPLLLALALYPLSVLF
# [11] = molecular target: Signal transducer and activator of transcription 3 (Homo sapiens, UniProt P40763); experiment: STAT3 activators, late-stage profile, late-stage follow-up, cell-based, STAT1 reporter, BCL3 qPCR, cytotoxicity, panel member STAT3 Activation (AID 2049)
# [12] = STAT3 activators, late-stage profile, late-stage follow-up, cell-based, STAT1 reporter, BCL3 qPCR, cytotoxicity, panel member Cytotoxicity (AID 2049); format: toxicity
# [13] = molecular target: Kappa-type opioid receptor (Homo sapiens, UniProt P41145); experiment: SAR analysis of small molecule agonists of the kappa opioid receptor via a luminescent beta-arrestin assay - Set 2. [Related pubchem assays (depositor defined):AID1777, AID1785, AID1786, AID1966, AID2133, AID2136, AID2284, AID449737]; format: functional
# [14] = molecular target: Scavenger receptor class B member 1 (Mus musculus, UniProt Q61009); experiment: inhibitors of SR-BI mediated HDL lipid uptake, dose response, ldlA[mSR-BI] cells, fluorescence, cherry pick (AID 493194); format: functional, cell-based;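 further: cellular uptake of fluorescent DiI-labeled HDL measured as cell fluorescence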
# [15] = inhibition of K1F phage lysis, E. coli UTI89, bacterial capsule biogenesis inhibitors, alamar blue (AID 488966); format: functional
# [16] = molecular target: T2, Zinc finger protein mex-5 (Caenorhabditis elegans, UniProt Q9XUB2); experiment: MEX-5/TCR-2 RNA interaction inhibitors, dose response, biochemical, C. elegans, fluorescence polarization (AID 1960)
# T2 sequence (Q9XUB2 whole entry): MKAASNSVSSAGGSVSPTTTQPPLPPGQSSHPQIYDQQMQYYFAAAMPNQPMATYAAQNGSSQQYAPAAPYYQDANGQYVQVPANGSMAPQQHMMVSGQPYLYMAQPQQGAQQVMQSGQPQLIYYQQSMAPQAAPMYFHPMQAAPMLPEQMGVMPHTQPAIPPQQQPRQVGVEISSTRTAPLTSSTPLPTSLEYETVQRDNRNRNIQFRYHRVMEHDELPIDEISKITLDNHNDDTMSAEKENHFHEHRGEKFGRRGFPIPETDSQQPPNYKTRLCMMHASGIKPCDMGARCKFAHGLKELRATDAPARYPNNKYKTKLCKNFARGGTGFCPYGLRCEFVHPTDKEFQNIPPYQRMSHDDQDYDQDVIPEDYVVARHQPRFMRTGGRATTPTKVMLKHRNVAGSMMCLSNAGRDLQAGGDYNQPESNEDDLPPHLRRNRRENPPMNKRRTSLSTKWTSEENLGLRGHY
# [17] = molecular target: T3, RNA-binding protein pos-1 (Caenorhabditis elegans, UniProt G5EF15); experiment: inhibitors of POS-1/mex-3 RNA binding, dose response, biochemical, fluorescence polarization (AID 1964);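 further: purified POS-1 fused to maltose binding protein made in E. coli; potency of compounds blocking POS-1 binding to fluorescent RNA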
# T3 sequence (G5EF15 whole entry): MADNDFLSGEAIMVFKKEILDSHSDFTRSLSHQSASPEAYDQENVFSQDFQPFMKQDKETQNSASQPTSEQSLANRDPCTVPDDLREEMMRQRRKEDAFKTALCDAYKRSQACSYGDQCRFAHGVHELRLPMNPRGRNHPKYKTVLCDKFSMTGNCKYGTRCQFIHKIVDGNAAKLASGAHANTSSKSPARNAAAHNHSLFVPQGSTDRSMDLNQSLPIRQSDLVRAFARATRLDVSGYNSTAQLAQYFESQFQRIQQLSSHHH
# Protein Rev = Protein Rev (Human immunodeficiency virus type 1 group M subtype B (isolate HXB2)(HIV-1), UniProt P04618); experiment: inhibitors of Rev binding to RRE RNA, dose response, biochemical, fluorescence polarization, HIV-1 (AID 434976); parameters: species or system Human immunodeficiency virus 1
# [18] = molecular target: Female germline-specific tumor suppressor gld-1 (Caenorhabditis elegans, UniProt Q17339); experiment: inhibitors of GLD-1 binding to TGE RNA, dose response, biochemical, fluorescence polarization, C. elegans (AID 2802);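 further: fluorescence polarization of labeled TGE RNA bound by purified gld-1 protein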
# [19] = HepG2 cell cytotoxicity, dose response, cytotoxicity control for Shn3 inhibitor project, CellTiter-Glo, cherry-picked (AID 624134); format: functional, cell-based
# [20] = control 3'UTR Renilla luciferase suppression, dose response, counter-screen for Shn3 inhibitor project, cell-based, Clone20-Shn3RL, cherry-picked (AID 624133); format: functional
# HeLa [21] = experiment: Cytotoxicity counterscreen assay for transcriptional activators of heat shock protein 70 (Hsp70). [Related pubchem assays: 1203, 1252 ]; format: functional; details: Homo sapiens
# X-box-binding protein 1 = X-box-binding protein 1 (Homo sapiens, UniProt P17861); format: functional, Cricetulus griseus;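 further: confirmatory dose-response counter-screen serving a CHOP assay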
# Chain of X-box-binding protein 1 (P17861 whole entry): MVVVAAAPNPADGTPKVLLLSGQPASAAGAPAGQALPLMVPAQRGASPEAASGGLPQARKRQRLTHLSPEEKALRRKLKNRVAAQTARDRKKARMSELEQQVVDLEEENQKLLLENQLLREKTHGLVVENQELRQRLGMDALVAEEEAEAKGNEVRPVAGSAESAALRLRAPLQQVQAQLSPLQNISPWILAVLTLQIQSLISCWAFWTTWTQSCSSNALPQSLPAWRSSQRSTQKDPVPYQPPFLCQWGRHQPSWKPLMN
# [22] = Shn3 3'UTR reporter inhibitors, dose response, cell-based, Clone20 osteoblasts, firefly luciferase, cherry-picked (AID 624132); format: functional;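 further: firefly luciferase luminescence from reporter carrying the Shn3 3'UTR in osteoblasts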
# [23] = NIH-3T3 fibroblast cytotoxicity, dose response, cytotoxicity control, cell-based, fluorescence, Alamar Blue, secondary assay (AID 2327); format: functional;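 further: NIH-3T3 mouse fibroblasts cultured with fluconazole at 8 µg/mL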
# BJ = experiment: cytotoxicity toward Ras-transformed BJeLR fibroblasts, dose response, cell-based, alamar blue fluorescence, cherrypicked samples (AID 2631); format: functional; details: Homo sapiens;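 further: confirmatory dose-response assay in RAS-dependent BJ fibroblasts engineered with TERT, LT and ST, with cytotoxicity read by fluorescence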
# [24] = C. albicans growth with fluconazole, confirmation, fluorescence, retest (AID 2467); format: functional, cell-based
# [25] = molecular target: T4, Voltage-gated N-type calcium channel alpha-1B subunit/Amyloid beta A4 precursor protein-binding family A member 1 (Homo sapiens, UniProt Q00975+Q02410); experiment: disruptors of Mint-PDZ/N-type channel peptide interaction – biochemical, HTRF, SAR follow-up (AID 2489); format: functional
# T4 sequence (Q00975 whole entry): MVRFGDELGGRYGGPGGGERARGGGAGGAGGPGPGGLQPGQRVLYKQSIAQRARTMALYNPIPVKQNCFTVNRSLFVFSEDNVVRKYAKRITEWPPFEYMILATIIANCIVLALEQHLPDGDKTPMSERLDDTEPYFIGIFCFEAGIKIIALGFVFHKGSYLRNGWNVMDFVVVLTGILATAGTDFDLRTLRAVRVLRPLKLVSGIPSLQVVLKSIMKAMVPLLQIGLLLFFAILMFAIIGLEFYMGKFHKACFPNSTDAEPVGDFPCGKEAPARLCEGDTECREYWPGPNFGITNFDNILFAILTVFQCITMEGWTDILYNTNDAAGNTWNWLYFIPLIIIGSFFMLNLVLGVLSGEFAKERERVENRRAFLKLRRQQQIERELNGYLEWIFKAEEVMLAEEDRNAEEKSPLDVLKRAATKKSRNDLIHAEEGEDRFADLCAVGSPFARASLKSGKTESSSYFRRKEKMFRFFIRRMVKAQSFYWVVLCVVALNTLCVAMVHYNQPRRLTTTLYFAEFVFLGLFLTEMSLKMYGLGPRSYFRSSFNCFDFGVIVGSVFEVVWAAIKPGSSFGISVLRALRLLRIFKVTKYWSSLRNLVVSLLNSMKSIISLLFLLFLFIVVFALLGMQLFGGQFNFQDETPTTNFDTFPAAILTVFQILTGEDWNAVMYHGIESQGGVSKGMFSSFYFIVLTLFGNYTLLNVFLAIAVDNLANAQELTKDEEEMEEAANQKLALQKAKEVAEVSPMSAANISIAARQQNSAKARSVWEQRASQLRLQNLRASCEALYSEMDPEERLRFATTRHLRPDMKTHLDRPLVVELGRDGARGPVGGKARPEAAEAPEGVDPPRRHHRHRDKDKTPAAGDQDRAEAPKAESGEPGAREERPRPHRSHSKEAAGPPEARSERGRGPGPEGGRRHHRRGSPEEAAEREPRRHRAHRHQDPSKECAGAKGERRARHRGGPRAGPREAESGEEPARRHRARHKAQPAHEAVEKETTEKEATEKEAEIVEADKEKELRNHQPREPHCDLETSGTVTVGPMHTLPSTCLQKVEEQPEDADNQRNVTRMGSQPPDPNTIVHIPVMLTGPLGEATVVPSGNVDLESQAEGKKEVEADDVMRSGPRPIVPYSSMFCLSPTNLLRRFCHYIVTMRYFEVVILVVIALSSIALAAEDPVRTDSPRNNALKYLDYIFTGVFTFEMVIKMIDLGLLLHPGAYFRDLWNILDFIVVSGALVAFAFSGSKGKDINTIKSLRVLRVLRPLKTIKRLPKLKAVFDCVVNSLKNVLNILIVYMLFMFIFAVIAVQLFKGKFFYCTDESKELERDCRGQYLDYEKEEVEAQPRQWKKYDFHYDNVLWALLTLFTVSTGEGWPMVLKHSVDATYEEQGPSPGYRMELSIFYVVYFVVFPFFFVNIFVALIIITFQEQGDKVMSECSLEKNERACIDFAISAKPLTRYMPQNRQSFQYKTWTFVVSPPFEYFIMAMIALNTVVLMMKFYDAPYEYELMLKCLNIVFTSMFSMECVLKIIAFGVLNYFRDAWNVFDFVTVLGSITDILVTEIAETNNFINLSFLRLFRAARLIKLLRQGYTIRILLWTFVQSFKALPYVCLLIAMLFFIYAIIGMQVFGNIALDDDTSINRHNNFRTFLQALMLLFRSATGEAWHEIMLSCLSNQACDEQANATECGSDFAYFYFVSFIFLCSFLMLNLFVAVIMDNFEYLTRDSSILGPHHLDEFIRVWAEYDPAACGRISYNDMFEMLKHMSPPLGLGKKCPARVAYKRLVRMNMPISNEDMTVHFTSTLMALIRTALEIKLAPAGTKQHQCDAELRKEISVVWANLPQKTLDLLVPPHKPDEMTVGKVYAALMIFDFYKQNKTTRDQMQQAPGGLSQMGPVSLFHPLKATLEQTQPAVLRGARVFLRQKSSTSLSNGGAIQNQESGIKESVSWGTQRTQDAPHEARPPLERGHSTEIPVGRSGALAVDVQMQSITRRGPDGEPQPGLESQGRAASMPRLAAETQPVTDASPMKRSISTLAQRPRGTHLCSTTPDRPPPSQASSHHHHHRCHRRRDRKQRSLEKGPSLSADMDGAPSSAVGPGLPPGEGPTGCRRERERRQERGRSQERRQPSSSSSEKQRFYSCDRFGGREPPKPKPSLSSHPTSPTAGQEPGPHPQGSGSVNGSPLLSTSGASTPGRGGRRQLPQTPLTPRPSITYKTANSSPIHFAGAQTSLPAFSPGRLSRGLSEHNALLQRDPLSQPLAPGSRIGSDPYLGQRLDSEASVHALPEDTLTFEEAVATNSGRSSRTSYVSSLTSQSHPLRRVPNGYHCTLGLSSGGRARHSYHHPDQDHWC
# T4 sequence (Q02410 whole entry): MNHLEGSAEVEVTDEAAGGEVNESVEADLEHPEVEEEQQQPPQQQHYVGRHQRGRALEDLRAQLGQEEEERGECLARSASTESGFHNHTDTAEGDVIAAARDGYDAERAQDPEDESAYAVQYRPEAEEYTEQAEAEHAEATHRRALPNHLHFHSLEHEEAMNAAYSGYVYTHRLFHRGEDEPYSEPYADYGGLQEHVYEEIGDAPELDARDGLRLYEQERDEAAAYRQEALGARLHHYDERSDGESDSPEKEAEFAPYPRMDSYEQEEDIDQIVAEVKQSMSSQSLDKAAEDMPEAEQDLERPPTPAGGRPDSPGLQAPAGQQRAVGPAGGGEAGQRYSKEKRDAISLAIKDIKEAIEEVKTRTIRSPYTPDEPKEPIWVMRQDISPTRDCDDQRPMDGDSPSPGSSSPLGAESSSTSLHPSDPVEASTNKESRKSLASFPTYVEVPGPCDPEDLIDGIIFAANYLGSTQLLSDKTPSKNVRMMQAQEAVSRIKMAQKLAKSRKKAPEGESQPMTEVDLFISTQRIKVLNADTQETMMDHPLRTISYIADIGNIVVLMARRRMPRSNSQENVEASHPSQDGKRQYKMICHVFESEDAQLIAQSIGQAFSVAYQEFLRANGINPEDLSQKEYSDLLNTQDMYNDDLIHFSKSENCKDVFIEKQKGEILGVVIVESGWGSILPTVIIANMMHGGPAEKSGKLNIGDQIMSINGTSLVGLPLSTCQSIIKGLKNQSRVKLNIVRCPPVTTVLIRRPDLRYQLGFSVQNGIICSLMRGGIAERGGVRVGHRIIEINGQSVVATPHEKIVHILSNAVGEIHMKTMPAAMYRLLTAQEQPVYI
# [26] = molecular target: T4, Voltage-gated N-type calcium channel alpha-1B subunit/Amyloid beta A4 precursor protein-binding family A member 1; experiment: disruptors of Mint-PDZ/N-type channel peptide interaction – biochemical, HTRF, set 2, SAR follow-up (AID 434980); format: functional
# Salmon testes DNA = experiment: DNA intercalators displacing acridine orange, dose response, artefact control for KSHV LANA DNA-binding inhibitor project, biochemical, fluorescence polarization, cherry-picked samples, set 2 (AID 504727); parameters: species or system Salmonidae
# cells = format: functional
# [27] = Luminescence Cell-Based Dose Response HTS to Identify Inhibitors of 5'UTR Stem-Loop Driven Prion Protein mRNA Translation in H4 Neuroglioblastoma Cells. [Related pubchem assays: 1827 (Project Summary), 1813 (Primary HTS)]; format: functional
# Vero [28] = experiment: Vero E6 cell cytotoxicity, SAR follow-up, cytotoxicity control for West Nile virus antiviral project, synthesized analogs (AID 2244); format: functional; details: Chlorocebus sabaeus
# [29] = Luminescence Cell-Based Dose Retest to Confirm Inhibitors of Cancer Stem Cells. [Related pubchem assays (depositor defined):AID2717, AID2721]; format: functional; details: Homo sapiens
# [30] = inhibitors of firefly luciferase expression or activity, dose response, H4 neuroglioma cells, luminescence (AID 1990); format: functional, cell-based
# [31] = inhibitors of SNCA 5'UTR-driven reporter translation, confirmation, H4 neuroglioma cells, luminescence (AID 1988); format: functional, cell-based
# Bcl-2-like protein 10 = Bcl-2-like protein 10 (Homo sapiens, UniProt Q9HD36); experiment: displacers of TR3 peptide from Bcl-B, primary screen, selectivity assay for Bfl-1 inhibitor project, biochemical, fluorescence polarization, FITC-TR3 peptide (AID 748);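 further: fluorescence polarization from a fluorescein-labelled TR3 peptide binding purified Bcl-B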
# Chain of Bcl-2-like protein 10 (Q9HD36 whole entry): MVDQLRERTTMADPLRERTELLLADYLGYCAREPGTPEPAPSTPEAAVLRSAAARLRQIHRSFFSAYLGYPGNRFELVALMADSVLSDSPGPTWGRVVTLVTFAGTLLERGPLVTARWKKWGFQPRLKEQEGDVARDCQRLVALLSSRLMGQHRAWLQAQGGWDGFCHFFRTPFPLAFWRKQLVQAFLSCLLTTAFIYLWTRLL
# [32] = molecular target: Cyclin-dependent kinase 5/CDK5 activator 1 (Homo sapiens, UniProt Q00535); experiment: CDK5/p35 kinase inhibitors, dose response, biochemical, cherry-picked samples, set 2 (AID 504545)
structure (smiles),measurement,setting,value
Nc1nc(-c2ccccn2)nc(N)c1Cc1c(F)cccc1Cl,IC50,Nonstructural protein 1,6.42 µM (active)
same,IC50,[1],62.2 µM (not active)
same,EC50,[2],1.18 µM (active)
same,EC50,[3],5.25 µM (active)
same,AC50,INS1,5.84 µM (active)
same,IC50,[4],4.08 µM (active)
same,IC50,[5],7.4 µM (active)
CCCC/C=C1/CCC(CN(C)C)C1=O (stereo not given),CC50,Vero [6],> 25 µM (active)
same,GI50,P388,0.164 µM (active)
same,IC50,[7],27.1 µM (inactive)
same,GI50,P388/ADR,0.155 µM (active)
same,GI50,SN12K1,0.776 µM (active)
same,IC50,Vero [8],21.8 µM (active)
same,IC50,Beta-galactosidase,> 66.6 µM (inactive)
COCC#Cc1ccc(C2C(C)CCC3C(=O)N4C(CCC(C)C4c4ccc(C#CCOC)cc4)C(=O)N32)cc1 (stereo not given),AC50,Cytochrome P450 2C9,7.94 µM (inconclusive)
Cn1c(N)c(C(=O)COC(=O)c2ccc(Cl)c(S(=O)(=O)N3CCCC3)c2)c(=O)n(C)c1=O,AC50,HeLa [9],68.1 µM (active)
CCN(CC)c1ccc(NC(=O)Cn2c(C(C)NC(=O)c3ccc(C)cc3)nc3ccccc32)cc1 (stereo not given),EC50,[10],> 100 µM (not active)
COc1cc(NC(=O)c2cc(C3CC3)on2)c(OC)cc1Cl,EC50,[11],0.00219 µM (active)
same,CC50,[12],> 55.7 µM (inactive)
O=C(CN(Cc1cccs1)C(=O)c1ccccn1)NC1CCCCC1,EC50,[13],> 20 µM (inactive)
COc1ccc(OC)c(Nc2ccc(Nc3cc(OC)ccc3OC)nn2)c1,AC50,[14],19.8 µM (active)
Cc1nc(SCc2ccccc2)c([N+](=O)[O-])[nH]1,IC50,[15],> 150 µM (active)
COC(=O)[C@@]1(C#N)[C@@H]2C=CC(C(C)=O)=CN2[C@@H](C(N)=O)[C@@H]1c1ccc(F)cc1,EC50,[16],11.4 µM (active)
same,EC50,[17],4.6 µM (active)
same,IC50,Protein Rev,18.3 µM (not active)
same,IC50,[18],15.1 µM (inactive)
Cc1cc(Cl)n2c(nc3ccccc32)c1C#N,AC50,[19],> 70 µM (inactive)
same,AC50,[20],5.72 µM (active)
same,CC50,HeLa [21],> 11 µM (not active)
same,Absolute IC50 (XBP1),X-box-binding protein 1,10 µM
same,AC50,[22],1.85 µM (active)
same,EC50,[23],6.06 µM (inconclusive)
same,EC50,BJ,0.343 µM (inconclusive)
same,EC50,[24],0.54 µM (active)
CC(=O)Oc1cccc(N2C(=O)C3C(C2=O)C2(C)C=CC3(C)O2)c1 (stereo not given),IC50,[25],12 µM (active) and 18.3 µM (active)
same,IC50,[26],9.86 µM (active) and 9.63 µM (active)
O=c1oc2ccccc2nc1/C=C(\O)c1ccc(Br)cc1,AC50,Salmon testes DNA,56.9 µM (active)
same,IC50,cells,5 µM (active)
CCN(CC)CCCN=C(S)N1CCN(c2nc(-c3ccc(F)cc3)cs2)CC1,EC50,[27],> 120 µM (not active)
same,CC50,Vero [28],13.3 µM (active)
same,AC50,[29],1 µM (active)
same,EC50,[30],> 120 µM (not active)
same,EC50,[31],> 120 µM (not active)
COc1cc(CC(=O)OCC(=O)Nc2ncc(Cl)cc2Cl)cc(OC)c1OC,IC50,Bcl-2-like protein 10,68.3 µM (inactive)
Fc1ccccc1/C=N/Nc1[nH]cnc2ncnc1-2,AC50,[32],17.4 µM (active)
